Measurements taken from patent publication US20250340538A1, “IMIDAZOLONE DERIVATIVES AS INHIBITORS OF PROTEIN KINASES IN PARTICULAR DYRK1A, CLK1 AND/OR CLK4” (PERHA PHARMACEUTICALS, priority 2021, published 2025).

How the values were obtained:
[1] = target: T1, CLK1 (Homo sapiens, UniProt P49759); test: Radiometric protein kinase assay (33PanQinase Activity Assay), CLK1; assay type: biochemical; conditions: class by IC50 on CLK1, from dose-response curves; read-out: Potency Class CLK1
T1 construct: GST-fusion or His-tag (not specified per kinase); purchased ProQinase GmbH; host or cells: Sf9 insect cells or E. coli (not specified per kinase)
T1 sequence (P49759 whole entry, the tested form may be a part): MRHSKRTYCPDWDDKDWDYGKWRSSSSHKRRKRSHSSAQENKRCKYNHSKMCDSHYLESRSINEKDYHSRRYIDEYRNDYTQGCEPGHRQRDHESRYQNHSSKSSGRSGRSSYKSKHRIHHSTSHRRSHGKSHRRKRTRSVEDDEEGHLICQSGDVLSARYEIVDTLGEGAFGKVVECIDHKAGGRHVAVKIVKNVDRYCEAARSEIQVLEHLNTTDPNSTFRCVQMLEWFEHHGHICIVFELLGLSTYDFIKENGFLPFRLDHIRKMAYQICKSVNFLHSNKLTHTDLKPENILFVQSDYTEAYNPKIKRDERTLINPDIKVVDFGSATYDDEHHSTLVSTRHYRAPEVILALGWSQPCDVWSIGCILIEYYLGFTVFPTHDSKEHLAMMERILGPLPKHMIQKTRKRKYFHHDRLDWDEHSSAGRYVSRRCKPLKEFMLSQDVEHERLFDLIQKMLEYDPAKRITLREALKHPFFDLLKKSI
Experimental: Assays were performed by ProQinase GmbH (Engesserstr. 4, D-79108 Freiburg, Germany. www.proqinase.com). The IC50 profile of all compounds was determined using 12 protein kinases (CDK2/cyclin E, CK1ε, CLK1, 2, 3, 4, DYRK1A, 1B, 2, 3, 4, GSK3β).
(§1) The compounds were provided as […] in 100% DMSO. Prior to testing, the 1 μM stock solutions were subjected to a serial, semi-logarithmic dilution using 100% DMSO as a solvent. […] In the process, 90 μl H2O were added to each well of each compound dilution plate. To minimize potential precipitation, the H2O was added to each plate only a few minutes before the transfer of the compound solutions into the assay plates. The plate was shaken thoroughly, resulting in a compound dilution plate/10% DMSO.
(§2) For the assays (see below), 5 μL solution from each well of the compound dilution plates/10% DMSO were transferred into the assay plates. The final volume of the assay was 50 μL. All compounds were tested at 10 final assay concentrations in the range from 10 μM to 30 nM. The final DMSO concentration in the reaction cocktails was 1% in all cases.
(§3) All protein kinases provided by ProQinase were expressed in Sf9 insect cells or in E. coli as recombinant GST-fusion proteins or His-tagged proteins, either as full-length or enzymatically active fragments. All kinases were produced from human cDNAs and purified by either GSH-affinity chromatography or immobilized metal. Affinity tags were removed from a number of kinases during purification. The purity of the protein kinases was examined by SDS-PAGE/Coomassie staining, the identity was checked by mass spectroscopy.
(§4) A radiometric protein kinase assay (33PanQinase® Activity Assay) was used for measuring the kinase activity of the 12 protein kinases. All kinase assays were performed in 96-well FlashPlates™ from PerkinElmer (Boston, MA, USA) in a 50 μL reaction volume. The reaction cocktail was pipetted in four steps in the following order: • 25 μL of assay buffer (standard buffer/[γ-^33P]-ATP), • 10 μL of ATP solution (in H2O), • 5 μL of test compound (in 10% DMSO), • 10 μL of enzyme/substrate mixture.
(§5) The reaction cocktails were incubated at 30° C. for 60 minutes. The reaction was stopped with 50 μL of 2% (v/v) H3PO4, plates were aspirated and washed two times with 200 μL 0.9% (w/v) NaCl. Incorporation of ^33Pi was determined with a microplate scintillation counter (Microbeta, Wallac). The IC50 values for all compounds were calculated from the dose response curves
As a parameter for assay quality, the Z′-factor (Zhang et al., J. Biomol. Screen. 2: 67-73, 1999) for the low and high controls of each assay plate (n=8) was used. ProQinase's criterion for repetition of an assay plate is a Z′-factor below 0.4 (Iversen et al., J. Biomol. Screen. 3: 247-252, 2006).

[2] = target: T2, DYRK1A (Homo sapiens, UniProt Q13627); test: Radiometric protein kinase assay (33PanQinase Activity Assay), DYRK1A; assay type: biochemical; conditions: for IC50: class by IC50 on DYRK1A, from dose-response curves, read-out: Potency Class DYRK1A; for Selectivity Class DYRK1A vs. CLK1: ratio of IC50 on CLK1 over IC50 on DYRK1A; for Selectivity Class DYRK1A vs. DYRK1B: ratio of IC50 on DYRK1B over IC50 on DYRK1A
T2 construct: GST-fusion or His-tag (not specified per kinase); purchased ProQinase GmbH; host or cells: Sf9 insect cells or E. coli (not specified per kinase)
Experimental: The IC50 profile of all compounds was determined using 12 protein kinases (CDK2/cyclin E, CK1ε, CLK1, 2, 3, 4, DYRK1A, 1B, 2, 3, 4, GSK3β).
as §1, §2, §3, §4, §5

Compound	IC50 [1] [nM]	IC50 [2] [nM]	Selectivity Class DYRK1A vs. CLK1 [2]	Selectivity Class DYRK1A vs. DYRK1B [2]
O=C1NC(NC2CCCCCC2)=N/C1=C\c1ccc2ncccc2c1 [Compound 44, (4Z)-2-(cycloheptylamino)-4-(6-quinolylmethylene)-1H-imidazol-5-one]	> 50	> 50	III (ratio between 0.5 and 2 fold)	II (ratio between 2 and 10 fold)
O=C1NC(NCC2CCCCC2)=N/C1=C\c1ccc2ncccc2c1 [Compound 45, (4Z)-2-(Cyclohexylmethylamino)-4-(6-quinolylmethylene)-1H-imidazol-5-one]	> 50	> 50	IV (ratio between 0.1 and 0.5 fold)	II (ratio between 2 and 10 fold)
CC(C)C[C@H](CO)NC1=N/C(=C\c2ccc3ncccc3c2)C(=O)N1 [Compound 46, (4Z)-2-[[(1R)-1-(hydroxymethyl)-3-methyl-butyl]amino]-4-(6-quinolylmethylene)-1H-imidazol-5-one]	> 50	10 to 25	II (ratio between 2 and 10 fold)	II (ratio between 2 and 10 fold)
COC[C@@H](CC(C)C)NC1=N/C(=C\c2ccc3ncccc3c2)C(=O)N1 [Compound 47, (4Z)-2-[[(1R)-1-(methoxymethyl)-3-methyl-butyl]amino]-4-(6-quinolylmethylene)-1H-imidazol-5-one]	> 50	25 to 50	II (ratio between 2 and 10 fold)	II (ratio between 2 and 10 fold)
O=C1NC(NCc2ccccc2)=N/C1=C\c1ccc2ncccc2c1 [Compound 51]	> 50	> 50	IV (ratio between 0.1 and 0.5 fold)	II (ratio between 2 and 10 fold)
COC[C@H](NC1=N/C(=C\c2ccc3ncccc3c2)C(=O)N1)c1ccccc1 [Compound 52, (4Z)-2-[[(1R)-2-methoxy-1-phenyl-ethyl]amino]-4-(6-quinolylmethylene)-1H-imidazol-5-one]	> 50	> 50	III (ratio between 0.5 and 2 fold)	II (ratio between 2 and 10 fold)
Cc1cnc(CNC2=N/C(=C\c3ccc4ncccc4c3)C(=O)N2)cn1 [Compound 53, (4Z)-2-[(5-Methylpyrazin-2-yl)methylamino]-4-(6-quinolylmethylene)-1H-imidazol-5-one]	> 50	> 50	IV (ratio between 0.1 and 0.5 fold)	III (ratio between 0.5 and 2 fold)
Cn1ccc(NC2=N/C(=C\c3ccc4ncccc4c3)C(=O)N2)n1 [Compound 54, (4Z)-2-[(1-methylpyrazol-3-yl)amino]-4-(6-quinolylmethylene)-1H-imidazol-5-one]	> 50	> 50	III (ratio between 0.5 and 2 fold)	II (ratio between 2 and 10 fold)
O=C1NC(N[C@@H]2CCOC2)=N/C1=C\c1ccc2ncccc2c1 [Compound 55, (4Z)-4-(6-Quinolylmethylene)-2-[[(3R)-tetrahydrofuran-3-yl]amino]-1H-imidazol-5-one]	> 50	> 50	III (ratio between 0.5 and 2 fold)	III (ratio between 0.5 and 2 fold)
O=C1NC(N[C@@H]2CCCOC2)=N/C1=C\c1ccc2ncccc2c1 [Compound 56, (4Z)-4-(6-quinolylmethylene)-2-[[(3R)-tetrahydropyran-3-yl]amino]-1H-imidazol-5-one]	> 50	> 50	III (ratio between 0.5 and 2 fold)	II (ratio between 2 and 10 fold)
O=C1NC(NC2CCCCCC2)=N/C1=C\c1ccc2cnccc2c1 [Compound 57, (4Z)-2-(cycloheptylamino)-4-(6-isoquinolylmethylene)-1H-imidazol-5-one]	> 50	> 50	III (ratio between 0.5 and 2 fold)	III (ratio between 0.5 and 2 fold)
O=C1NC(NCC2CCCCC2)=N/C1=C\c1ccc2cnccc2c1 [Compound 58, (4Z)-2-(Cyclohexylmethylamino)-4-(6-isoquinolylmethylene)-1H-imidazol-5-one]	> 50	> 50	IV (ratio between 0.1 and 0.5 fold)	III (ratio between 0.5 and 2 fold)
CC(C)C[C@H](CO)NC1=N/C(=C\c2ccc3cnccc3c2)C(=O)N1 [Compound 59, (4Z)-2-[[(1R)-1-(hydroxymethyl)-3-methyl-butyl]amino]-4-(6-isoquinolylmethylene)-1H-imidazol-5-one]	> 50	> 50	III (ratio between 0.5 and 2 fold)	III (ratio between 0.5 and 2 fold)
COC[C@@H](CC(C)C)NC1=N/C(=C\c2ccc3cnccc3c2)C(=O)N1 [Compound 60, (4Z)-4-(6-isoquinolylmethylene)-2-[[(1R)-1-(methoxymethyl)-3-methyl-butyl]amino]-1H-imidazol-5-one]	> 50	> 50	II (ratio between 2 and 10 fold)	III (ratio between 0.5 and 2 fold)
O=C1NC(NCc2ccccc2)=N/C1=C\c1ccc2cnccc2c1 [Compound 62, (4Z)-2-(benzylamino)-4-(6-isoquinolylmethylene)-1H-imidazol-5-one]	> 50	> 50	V (ratio >0.1 fold (most CLK1- or DYRK1B-selective compounds))	IV (ratio between 0.1 and 0.5 fold)
COC[C@H](NC1=N/C(=C\c2ccc3cnccc3c2)C(=O)N1)c1ccccc1 [Compound 63, (4Z)-4-(6-isoquinolylmethylene)-2-[[(1R)-2-methoxy-1-phenyl-ethyl]amino]-1H-imidazol-5-one]	> 50	> 50	IV (ratio between 0.1 and 0.5 fold)	III (ratio between 0.5 and 2 fold)
Cc1cnc(CNC2=N/C(=C\c3ccc4cnccc4c3)C(=O)N2)cn1 [Compound 64, (4Z)-4-(6-Isoquinolylmethylene)-2-[(5-methylpyrazin-2-yl)methylamino]-1H-imidazol-5-one]	> 50	> 50	III (ratio between 0.5 and 2 fold)	IV (ratio between 0.1 and 0.5 fold)
Cn1ccc(NC2=N/C(=C\c3ccc4cnccc4c3)C(=O)N2)n1 [Compound 65, (4Z)-4-(6-Isoquinolylmethylene)-2-[(1-methylpyrazol-3-yl)amino]-1H-imidazol-5-one]	> 50	> 50	IV (ratio between 0.1 and 0.5 fold)	III (ratio between 0.5 and 2 fold)
O=C1NC(N[C@@H]2CCOC2)=N/C1=C\c1ccc2cnccc2c1 [Compound 66, (4Z)-4-(6-Isoquinolylmethylene)-2-[[(3R)-tetrahydrofuran-3-yl]amino]-1H-imidazol-5-one]	> 50	> 50	III (ratio between 0.5 and 2 fold)	IV (ratio between 0.1 and 0.5 fold)
O=C1NC(N[C@@H]2CCCOC2)=N/C1=C\c1ccc2cnccc2c1 [Compound 67, (4Z)-4-(6-isoquinolylmethylene)-2-[[(3R)-tetrahydropyran-3-yl]amino]-1H-imidazol-5-one]	> 50	> 50	III (ratio between 0.5 and 2 fold)	III (ratio between 0.5 and 2 fold)
